Data on five compounds can be found in patent US11040018B2, “Formulation for inhibiting formation of 5-HT2B agonists and methods of using same” (ZOGENIX INTERNATIONAL LIMITED, priority 2016, dated 2021).

The nature of data set [1]: Drug-drug interaction clinical trial: fenfluramine co-administered with stiripentol, clobazam and valproate; plasma levels of fenfluramine and norfenfluramine. To be noted: healthy volunteers; for Exposure impact: ratio of AUC0-72 for combination treatment to AUC0-72 for fenfluramine alone: single dose, fenfluramine 0.8 mg/kg with stiripentol 3,500 mg, clobazam 20 mg, valproate 25 mg/kg (≤1,500 mg), blood plasma, interim results. The protocol:
The effects of co-administration of a three-drug regimen on fenfluramine metabolism and resultant plasma levels of fenfluramine and its metabolite norfenfluramine was assessed in a clinical trial using in healthy volunteers.
A randomized, open-label, single-dose, 3-way cross-over study was designed to examine the effects of co-administering fenfluramine with a three-drug cocktail consisting of stiripentol, clobazam, and valproate. Each patient was treated sequentially with three treatment regimens, each being administered individually, according to six different treatment sequences which were assigned randomly.
Subjects were recruited from an existing pool of volunteers or through direct advertising, Prospects who had participated in a study within three months prior of dosing were excluded from the pool of potential participants. A full medical history for the preceding 12-month period was obtained from each subject's primary care physician and evaluated. Patients were then assessed according to the inclusion and exclusion criteria shown below. Persons chosen as study participants underwent a screening visit prior to participation to reassess and confirm compliance with those criteria.
AUC0-72 values were calculated based on blood plasma levels of fenfluramine and norfenfluramine levels. Exposure impact is expressed as a ratio of AUC0-72 values determined for patients receiving the combination treatment to the AUC0-72 values determined for patients receiving fenfluramine alone.

The target in the next data set is 5-HT2B receptor (Homo sapiens, UniProt P41595). To be noted: cited from earlier work.
The target in the next data set is CYP1A2 (Homo sapiens, UniProt P05177). The note with it: cited from earlier work.
The target of the next data set is T1, CYP2B6 (Homo sapiens, UniProt P20813).
T1 sequence (P20813 1-491): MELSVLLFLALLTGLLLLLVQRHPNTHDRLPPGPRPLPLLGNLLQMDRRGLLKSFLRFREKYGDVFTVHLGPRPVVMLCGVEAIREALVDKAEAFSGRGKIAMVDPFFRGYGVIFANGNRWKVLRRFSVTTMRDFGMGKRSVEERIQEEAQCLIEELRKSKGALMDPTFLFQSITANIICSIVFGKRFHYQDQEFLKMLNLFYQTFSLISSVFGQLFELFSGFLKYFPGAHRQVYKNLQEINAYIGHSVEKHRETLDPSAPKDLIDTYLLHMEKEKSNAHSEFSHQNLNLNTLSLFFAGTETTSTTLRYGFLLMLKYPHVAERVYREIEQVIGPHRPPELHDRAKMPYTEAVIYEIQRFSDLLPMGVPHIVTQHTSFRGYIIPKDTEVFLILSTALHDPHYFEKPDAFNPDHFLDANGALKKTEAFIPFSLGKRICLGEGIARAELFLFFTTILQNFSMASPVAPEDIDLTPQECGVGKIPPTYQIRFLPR
To be noted: cited from earlier work.

The target of another data set is T2, CYP2C8 (Homo sapiens, UniProt P10632).
T2 sequence (P10632 1-490): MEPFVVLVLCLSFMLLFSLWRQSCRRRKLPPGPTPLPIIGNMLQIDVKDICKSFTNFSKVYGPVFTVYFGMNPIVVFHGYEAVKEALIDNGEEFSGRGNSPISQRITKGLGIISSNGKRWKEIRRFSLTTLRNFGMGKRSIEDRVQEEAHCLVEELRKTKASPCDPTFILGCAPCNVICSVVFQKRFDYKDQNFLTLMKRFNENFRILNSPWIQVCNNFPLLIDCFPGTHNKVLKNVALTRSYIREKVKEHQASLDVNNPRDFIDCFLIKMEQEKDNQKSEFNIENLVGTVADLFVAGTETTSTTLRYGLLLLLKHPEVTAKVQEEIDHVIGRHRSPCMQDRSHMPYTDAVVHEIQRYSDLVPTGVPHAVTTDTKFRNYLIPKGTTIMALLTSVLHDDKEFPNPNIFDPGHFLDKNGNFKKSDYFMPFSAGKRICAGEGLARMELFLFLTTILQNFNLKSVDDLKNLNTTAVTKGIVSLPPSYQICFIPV
The note with it: cited from earlier work.

The target in the next data set is CYP2C9 (Homo sapiens, UniProt P11712). The note with it: cited from earlier work.
The target in the next data set is CYP2C19 (Homo sapiens, UniProt P33261). To be noted: cited from earlier work.
The target of a further data set is CYP2D6 (Homo sapiens, UniProt P10635). The note with it: cited from earlier work.
The target in data set [2] is CYP3A4 (Homo sapiens, UniProt P08684). To be noted: cited from earlier work.
For data set [3], the system named is CYP3A4. The note with it: cited from earlier work.

Each structure is given as a SMILES string. Values joined by “and” are separate entries in the source; they are usually repeats but may differ in a detail not shown here. Equal entries are not always repeated.

Chain of 5-HT2B receptor (P41595 whole entry): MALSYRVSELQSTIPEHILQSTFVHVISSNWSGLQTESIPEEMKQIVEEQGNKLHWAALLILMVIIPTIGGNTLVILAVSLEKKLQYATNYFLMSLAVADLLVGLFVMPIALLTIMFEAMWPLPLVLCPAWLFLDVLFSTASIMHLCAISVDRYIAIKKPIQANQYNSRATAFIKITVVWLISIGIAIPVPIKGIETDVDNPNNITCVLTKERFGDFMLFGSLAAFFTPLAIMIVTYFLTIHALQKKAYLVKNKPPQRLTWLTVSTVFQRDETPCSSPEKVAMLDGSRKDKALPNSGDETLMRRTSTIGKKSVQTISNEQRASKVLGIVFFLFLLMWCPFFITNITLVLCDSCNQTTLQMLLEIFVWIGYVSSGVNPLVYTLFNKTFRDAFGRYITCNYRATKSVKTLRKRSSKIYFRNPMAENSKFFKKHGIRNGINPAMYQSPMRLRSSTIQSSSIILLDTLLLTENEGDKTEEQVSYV
Chain of CYP2D6 (P10635 whole entry): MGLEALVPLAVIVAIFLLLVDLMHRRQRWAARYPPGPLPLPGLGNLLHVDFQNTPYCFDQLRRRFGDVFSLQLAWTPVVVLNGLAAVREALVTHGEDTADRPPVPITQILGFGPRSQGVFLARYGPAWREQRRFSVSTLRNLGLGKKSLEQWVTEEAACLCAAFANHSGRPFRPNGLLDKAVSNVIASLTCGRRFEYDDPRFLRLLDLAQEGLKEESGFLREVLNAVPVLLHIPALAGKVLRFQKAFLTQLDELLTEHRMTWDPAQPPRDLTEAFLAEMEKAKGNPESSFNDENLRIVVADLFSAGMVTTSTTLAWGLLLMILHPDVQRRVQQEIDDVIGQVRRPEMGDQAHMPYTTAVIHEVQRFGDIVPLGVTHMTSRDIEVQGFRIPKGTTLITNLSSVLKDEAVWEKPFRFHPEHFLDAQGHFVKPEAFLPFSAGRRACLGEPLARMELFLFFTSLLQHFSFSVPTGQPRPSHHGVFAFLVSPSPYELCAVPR
Chain of CYP3A4 (Homo sapiens, UniProt P08684) (P08684 whole entry): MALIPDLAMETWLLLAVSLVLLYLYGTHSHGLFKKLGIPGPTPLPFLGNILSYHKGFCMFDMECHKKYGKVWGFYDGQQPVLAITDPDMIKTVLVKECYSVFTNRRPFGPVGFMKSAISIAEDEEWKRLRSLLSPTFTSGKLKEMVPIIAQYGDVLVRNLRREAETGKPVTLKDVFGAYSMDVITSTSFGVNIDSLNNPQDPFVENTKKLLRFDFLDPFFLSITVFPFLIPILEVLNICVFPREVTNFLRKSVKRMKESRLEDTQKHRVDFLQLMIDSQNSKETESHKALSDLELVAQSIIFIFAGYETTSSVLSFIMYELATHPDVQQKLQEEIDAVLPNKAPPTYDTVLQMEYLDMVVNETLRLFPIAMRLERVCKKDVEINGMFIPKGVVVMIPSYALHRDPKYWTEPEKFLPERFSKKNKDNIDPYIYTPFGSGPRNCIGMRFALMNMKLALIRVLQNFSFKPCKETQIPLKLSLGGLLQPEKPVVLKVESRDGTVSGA
Chain of CYP1A2 (P05177 whole entry): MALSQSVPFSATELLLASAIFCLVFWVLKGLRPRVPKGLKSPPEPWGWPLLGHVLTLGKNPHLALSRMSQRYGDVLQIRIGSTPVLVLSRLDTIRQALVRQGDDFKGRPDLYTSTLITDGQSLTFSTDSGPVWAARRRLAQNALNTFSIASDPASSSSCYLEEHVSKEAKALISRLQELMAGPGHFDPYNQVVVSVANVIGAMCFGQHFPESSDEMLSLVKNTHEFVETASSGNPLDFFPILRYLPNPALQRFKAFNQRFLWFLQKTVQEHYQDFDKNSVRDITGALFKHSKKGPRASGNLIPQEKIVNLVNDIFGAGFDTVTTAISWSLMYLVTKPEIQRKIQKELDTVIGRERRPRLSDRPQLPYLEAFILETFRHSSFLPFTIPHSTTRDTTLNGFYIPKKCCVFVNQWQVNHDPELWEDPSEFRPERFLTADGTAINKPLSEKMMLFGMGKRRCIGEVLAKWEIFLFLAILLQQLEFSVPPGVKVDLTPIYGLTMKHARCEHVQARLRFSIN
Chain of CYP2C19 (P33261 whole entry): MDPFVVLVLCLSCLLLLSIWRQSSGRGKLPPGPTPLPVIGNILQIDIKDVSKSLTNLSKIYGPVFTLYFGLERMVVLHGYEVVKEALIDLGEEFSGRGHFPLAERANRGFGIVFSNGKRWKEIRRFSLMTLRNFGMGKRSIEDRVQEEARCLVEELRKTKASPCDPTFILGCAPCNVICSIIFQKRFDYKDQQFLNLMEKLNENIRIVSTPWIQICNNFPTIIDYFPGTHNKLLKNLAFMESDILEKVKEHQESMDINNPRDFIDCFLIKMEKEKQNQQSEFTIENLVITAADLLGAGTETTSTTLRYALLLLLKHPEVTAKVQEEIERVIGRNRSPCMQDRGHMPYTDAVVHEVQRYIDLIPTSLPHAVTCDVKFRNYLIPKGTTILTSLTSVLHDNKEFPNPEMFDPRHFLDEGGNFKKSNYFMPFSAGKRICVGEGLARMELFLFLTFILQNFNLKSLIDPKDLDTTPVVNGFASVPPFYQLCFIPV
Chain of CYP2C9 (P11712 whole entry): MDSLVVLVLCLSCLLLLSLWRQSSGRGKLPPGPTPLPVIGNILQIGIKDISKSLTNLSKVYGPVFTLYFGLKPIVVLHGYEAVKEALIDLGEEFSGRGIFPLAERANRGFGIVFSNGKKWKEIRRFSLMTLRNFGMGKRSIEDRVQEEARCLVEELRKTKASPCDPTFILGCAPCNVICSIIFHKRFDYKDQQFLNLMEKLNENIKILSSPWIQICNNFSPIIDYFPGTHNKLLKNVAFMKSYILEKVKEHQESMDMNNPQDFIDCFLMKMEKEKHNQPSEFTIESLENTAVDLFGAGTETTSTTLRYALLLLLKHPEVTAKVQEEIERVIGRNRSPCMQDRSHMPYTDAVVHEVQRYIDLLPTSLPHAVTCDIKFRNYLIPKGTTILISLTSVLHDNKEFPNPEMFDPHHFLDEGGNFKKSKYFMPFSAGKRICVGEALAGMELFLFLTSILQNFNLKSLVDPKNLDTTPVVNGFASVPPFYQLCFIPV

In the case of `CCNC(C)Cc1cccc(C(F)(F)F)c1` (racemic) [fenfluramine, 3-trifluoromethyl-N-ethylamphetamine], the “Exposure impact: ratio of AUC0-72 for combination treatment to AUC0-72 for fenfluramine alone” value in data set [1] is 1.66 and 1.67. Besides, the “Agonistic effect on 5-HT2B receptor” value on 5-HT2B receptor was “does not have significant agonistic effects”.

As to `C=C(C)[C@@H]1CCC(C)=C[C@H]1c1c(O)cc(CCCCC)cc1O` [cannabidiol], the “Inhibition of CYP1A2” value on CYP1A2 is listed as “potent inhibitor of CYP1A2 (time-dependent effect)”. The “Inhibition of CYP2B6” value at CYP2B6 was “potent inhibitor”. Further, the “Inhibition of CYP2C8” value on CYP2C8 is recorded as “inhibitory effects”. In addition, at CYP2C9, the “Inhibition of CYP2C9” value was “inhibitory effects”. Moreover, the “Inhibition of CYP2C19” value on CYP2C19 is given as “inhibitory effects”. The “Inhibition of CYP2D6” value on CYP2D6 is given as “inhibitory effects”. The “Inhibition of CYP3A4” value at CYP3A4 [2] is given as “potent inhibitor”.

For the compound `CN1C(=O)CC(=O)N(c2ccccc2)c2cc(Cl)ccc21` [clobazam], the “Inhibition of CYP2D6” value at CYP2D6 is on record as “strongly inhibits”. For the same compound, in the data set on CYP3A4 [3], the “Induction of CYP3A4” value is reported as “weak inducer”.

With `CC(N)Cc1cccc(C(F)(F)F)c1` (stereo not drawn) [norfenfluramine], the “Exposure impact: ratio of AUC0-72 for combination treatment to AUC0-72 for fenfluramine alone” value in data set [1] worked out at 0.59. The “Reduction of patient exposure to norfenfluramine” value in data set [1] (fenfluramine co-administered with stiripentol, clobazam and valproate) is roughly 30%. Further, at 5-HT2B receptor, the “Agonistic effect on 5-HT2B receptor” value is on record as “particularly potent 5-HT2B agonist”.

With `CC(C)(C)C(O)/C=C/c1ccc2c(c1)OCO2` (stereo not drawn) [stiripentol], at CYP1A2, the “Inhibition of CYP1A2” value is “strongly inhibits”. Moreover, the “Inhibition of CYP2C9” value at CYP2C9 is listed as “less strongly”. Further, on CYP2C19, the “Inhibition of CYP2C19” value is recorded as “less strongly”. The “Inhibition of CYP3A4” value on CYP3A4 [2] was “strongly inhibits”.
